# Counter-ions that a name gives are not always drawn.
# Assays:
# [1] = tested on: dopamine (DA) neurons in substantia nigra pars compacta; settings: MPTP model, daily injections; cited from earlier work
# [2] = Cell cytotoxicity test: HT22 cells co-treated with 5 mM glutamate and compound, MTT readout; format: cell-based, mouse; settings: mouse, HT22 cells (mouse hippocampal neuron)
# Experimental: (§1) HT22 cells (mouse hippocampal neuron, Salk Institute and KRIBB) were placed in a 96-well plate 3×10^3 cells/well for 16 h before treatment. Five millimolar glutamate and the inventive compounds were co-treated and incubated for 24 h in growth media (DMEM with 10% FBS and 1% penicillin streptomycin). MTT (3-(4,5-dimethylthazol-2-yl)-2,5-diphenyltetrazolium bromide, Sigma®) was treated for 4 h and detected with a plate reader at a wavelength=450 nm [Da-Qing, et. al., Anti-oxidant and anti-inflammatory activities of macelignan in murine hippocampal cell line and primary culture of rat microglia cells, BBRC, 2005, 331, 1264-1269].
# (§2) The EC50 values were statistically analyzed using Prism® (GraphPad Software Inc., San Diego, Calif.). The results of the cell cytotoxicity test are summarized in Table 1 (EC50: neuroprotective effect against glutamate toxicity, and CC50: cytotoxicity of compound).
# [3] = tested on: HT22 cells (mouse hippocampal neuron); assay: as above; format: cell-based; settings: Mus musculus, HT-22, five millimolar glutamate co-treated, 24 h, read-out: EC50: neuroprotective effect against glutamate toxicity
# Experimental: as §1, §2
SMILES,DA levels in striatum [1],DA neurons in substantia nigra pars compacta [1],CC50 at 24 h [2] [µM],EC50 [3] [µM]
"Oc1ccc2c(c1)[C@@]13CCCC[C@H]1[C@@H](C2)NCC3 [(+)-3-HM, (+)-3-hydroxymorphinan]",restored,protected,,
"Oc1cc2c(c3c1OCCN3)C[C@@H]1NCC[C@]23CCCC[C@H]13 [Example 1, (6S,6aS,10aS)-2,3,4,5,6,6a,7,8,9,10-Decahydro-6,10a-(epiminoethano)phenanthro[2,1-b][1,4]oxazin-12-ol TFA salt]",,,> 100,26.9
"Oc1cc2c(c3c1OCCCN3)C[C@@H]1NCC[C@]23CCCC[C@H]13 [Example 2, (7S,7aS,11aS)-3,4,5,6,7,7a,8,9,10,11-Decahydro-2H-7,11a-(epiminoethano)phenanthro[2,1-b][1,4]oxazepin-13-ol TFA salt]",,,> 100,27.7
"CC(=O)N1CCOc2c(O)cc3c(c21)C[C@@H]1NCC[C@]32CCCC[C@H]12 [Example 3, 1-((6S,6aS,10aS)-12-Hydroxy-2,3,6,6a,7,8,9,10-octahydro-6,10a-(epiminoethano)phenanthro[2,1-b][1,4]oxazin-4(5H)-yl)ethanone TFA salt]",,,> 100,8.5
"CN1CCOc2c(O)cc3c(c21)C[C@@H]1NCC[C@]32CCCC[C@H]12 [Example 4, (6S,6aS,10aS)-4-Methyl-2,3,4,5,6,6a,7,8,9,10-decahydro-6,10a-(epiminoethano)phenanthro[2,1-b][1,4]oxazin-12-ol TFA salt]",,,> 100,9.6
"Oc1cc2c(c3c1OCCO3)C[C@@H]1NCC[C@]23CCCC[C@H]13 [Example 5, (6S,6aS,10aS)-3,5,6,6a,7,8,9,10-Octahydro-2H-6,10a-(epiminoethano)phenanthro[1,2-b][1,4]dioxin-12-ol TFA salt]",,,> 100,4.97
"CC1COc2c3c(cc(O)c2N1)[C@]12CCCC[C@@H]1[C@H](C3)NCC2 (stereo partly drawn) [Example 6, (6S,6aS,10aS)-2-Methyl-1,2,3,5,6,6a,7,8,9,10-decahydro-6,10a-(epiminoethano)phenanthro[1,2-b][1,4]oxazin-12-ol TFA salt]",,,> 100,0.314
"Oc1cc2c(c3c1NCCO3)C[C@@H]1NCC[C@]23CCCC[C@H]13 [Example 7, (6S,6aS,10aS)-1,2,3,5,6,6a,7,8,9,10-Decahydro-6,10a-(epiminoethano)phenanthro[1,2-b][1,4]oxazin-12-ol TFA salt]",,,13.5,0.65
"Oc1cc2c(c3c1NC(c1ccccc1)CO3)C[C@@H]1NCC[C@]23CCCC[C@H]13 (stereo partly drawn) [Example 8, (6S,6aS,10aS)-2-Phenyl-1,2,3,5,6,6a,7,8,9,10-decahydro-6,10a-(epiminoethano)phenanthro[1,2-b][1,4]oxazin-12-ol TFA salt]",,,8.1,0.457
"Oc1cc2c(c3nccnc13)C[C@@H]1NCC[C@]23CCCC[C@H]13 [Example 9, (6S,6aS,10aS)-6,6a,7,8,9,10-Hexahydro-5H-6,10a-(epiminoethano)naphtho[2,1-f]quinoxalin-12-ol TFA salt]",,,44.8,16.3
"Oc1cc2c(c3nc4ccccc4nc13)C[C@@H]1NCC[C@]23CCCC[C@H]13 [Example 10, (4aS,14S,14aS)-2,3,4,13,14,14a-Hexahydro-1H-14,4a-(epiminoethano)naphtho[2,1-a]phenazin-6-ol TFA salt]",,,10.7,0.354
"Oc1cccc2c1[nH]c1c(O)cc3c(c12)C[C@@H]1NCC[C@]32CCCC[C@H]12 [Example 11, (4aS,13S,13aS)-1,2,3,4,7,12,13,13a-Octahydro-13,4a-(epiminoethano)naphtho[1,2-c]carbazole-6,8-diol TFA salt]",,,44,0.303
"Oc1cc2c(c3c1[nH]c1ccccc13)C[C@@H]1NCC[C@]23CCCC[C@H]13 [Example 12, (4aS,13S,13aS)-1,2,3,4,7,12,13,13a-Octahydro-13,4a-(epiminoethano)naphtho[1,2-c]carbazol-6-ol TFA salt]",,,49.8,0.71
"Oc1ccc2[nH]c3c(O)cc4c(c3c2c1)C[C@@H]1NCC[C@]42CCCC[C@H]12 [Example 13, (4aS,13S,13aS)-1,2,3,4,7,12,13,13a-Octahydro-13,4a-(epiminoethano)naphtho[1,2-c]carbazole-6,10-diol TFA salt]",,,> 100,1.11
"Cc1ccc2[nH]c3c(O)cc4c(c3c2c1)C[C@@H]1NCC[C@]42CCCC[C@H]12 [Example 14, (4aS,13S,13aS)-10-Methyl-1,2,3,4,7,12,13,13a-octahydro-13,4a-(epiminoethano)naphtho[1,2-c]carbazol-6-ol TFA salt]",,,5.7,0.908
